From US4694069A, “Kibdelosporangium aridum SK&F-AAD-609” (SmithKline Beckman Corporation, priority 1985, dated 1987)
Converted amounts (≈) assume the structure as drawn. Where two headings read alike, the source gives them in different places.

Key:
[1] = test system: mixed intestinal microflora (cecum fluid); assay: Swine in vitro model; conditions: one level, up to 166.67 ppm; 4-5 h
Experimental: A swine in vitro model was used to characterize AAD-609 antibiotics as potential feed additives in swine and poultry. Mixed intestinal microflora were obtained from ileally-cannulated pigs. Virginiamycin, carbadox, AAD-216 and its components, and AAD-609 Complex (containing less than 5% AAD-216 antibiotics) were tested at one level. […] Glucose (GLU) was spared from microbial degradation. Volatile fatty acids (TOTAL) were the major end-product of microbial metabolism while lactic acid production were reduced. […] Since AAD-609 and AAD-216 give similar in vitro results, it is expected that AAD-609 has similar growth-promoting activity in monogastric animals. Also, the in vitro activity of AAD-609 is similar to the activity previously observed with bacitracin in this model.
The swine in vitro model was carried out by incubating 1.5 ml of cecum fluid, from a swine fed normal rations, mixed with 1.5 ml of a nutrient broth (3 mg casein hydrolysate, 30 mg maltose, 1.25 mg urea, 0.5 mg lysine, and 30 mg cellobiose) and with up to 166.67 parts per million of a selected growth promotant at 39° C., with oscillation, for about 4-5 hours. Results, percentage of control, are reported in the following table in which all abbreviations are as above except that LLA means L-lactate and ETOH means ethanol.

[2] = test system: Hubbard cross day-old chicks; assay: Growth of chicks; format: in vivo; conditions: 8 reps
Experimental: The effects of virginiamycin, AAD-609 Complex (containing less than 5% AAD-216 antibiotics) and AAD-216 Complex on growth of chicks were evaluated as follows. Hubbard cross day-old chicks were housed in wire-floored poultry caging. Eight chicks were included in each pen/rep. Weights and feed intakes were recorded on days 10 and 17. Results showing animal weight as a percentage of a control fed a normal rye-based ration and animal feed intake per unit weight gain as a percentage of animal feed intake (g) per unit weight gain (g) of the controls are reported in the following table.

Clostridium difficile = assay: In vitro MIC, standard microtiter assay; format: cell-based; conditions: Clostridioides difficile; Table A; read-out: MIC
From the text: (§1) In vitro minimum inhibitory concentrations (MIC) of the AAD-609 complex and of Factors A, B, CC2 and D, using standard microtiter assay procedures, against a number of microorganisms are reported in Table A, which follows.

Escherichia coli 12140 = assay: In vitro MIC, standard microtiter assay; format: cell-based; conditions: Escherichia coli, 12140; Table A; read-out: MIC
From the text: as §1

S. epidermidis 2265 = assay: In vitro MIC, standard microtiter assay; format: cell-based; conditions: Staphylococcus epidermidis, 2265; Table A; read-out: MIC
From the text: as §1

S. epidermidis 2479 = assay: In vitro MIC, standard microtiter assay; format: cell-based
From the text: as §1

S. epidermidis 2683 = assay: In vitro MIC, standard microtiter assay; format: cell-based; conditions: Staphylococcus epidermidis, 2683; Table A; read-out: MIC
From the text: as §1

[3] = test system: S. epidermidis 651 (methicillin resistant strain); assay: In vitro MIC, standard microtiter assay; format: cell-based; conditions: methicillin resistant strain
From the text: as §1

[4] = test system: Salmonella gallinarum BC-595; assay: In vitro MIC, standard microtiter assay; format: cell-based; conditions: Salmonella enterica, GALLINARUM; Table A; read-out: MIC
From the text: as §1

[5] = test system: Staphylococcus aureus HH127; assay: In vitro MIC, standard microtiter assay; format: cell-based
From the text: as §1

[6] = test system: Streptococcus faecalis 657; assay: In vitro MIC, standard microtiter assay; format: cell-based; conditions: Enterococcus faecalis, 657; Table A; read-out: MIC
From the text: as §1

S. aureus 209P = assay: In vitro MIC, standard microtiter assay; format: cell-based, Staphylococcus aureus; conditions: Staphylococcus aureus, 209P; Table A; read-out: MIC
From the text: as §1

S. aureus 674 = assay: In vitro MIC, standard microtiter assay; format: cell-based, Staphylococcus aureus; conditions: Staphylococcus aureus, 674; Table A; read-out: MIC
From the text: as §1

S. aureus 675 = assay: In vitro MIC, standard microtiter assay; format: cell-based, Staphylococcus aureus; conditions: Staphylococcus aureus, 675; Table A; read-out: MIC
From the text: as §1

[7] = test system: S. aureus 910 (methicillin resistant strain); assay: In vitro MIC, standard microtiter assay; format: cell-based, Staphylococcus aureus; conditions: Staphylococcus aureus; Table A; methicillin resistant strain; read-out: MIC
From the text: as §1

S. faecalis 34358 = assay: In vitro MIC, standard microtiter assay; format: cell-based, Streptococcus faecalis
From the text: as §1

[8] = test system: S. aureus 2620 (methicillin resistant strain); assay: MIC; format: cell-based; conditions: Staphylococcus aureus; Table B; methicillin resistant strain; read-out: MIC
From the text: as §1

[9] = 30:70 acetonitrile:water

Compound: virginiamycin
- % PR (percent propionate) [1]: 69 % of control
- ACE (acetate) [1]: 53 % of control
- BUT (butyrate) [1]: 153 % of control
- ETOH (ethanol) [1]: 25 % of control
- GLU (glucose) [1]: 180 % of control
- IBU (isobutyrate) [1]: 0 % of control
- IVA (isovalerate) [1]: 0 % of control
- LLA (L-lactate) [1]: 4 % of control
- LYS (lysine) [1]: 94 % of control
- PRO (propionate) [1]: 44 % of control
- TOTAL (total volatile fatty acids) [1]: 63 % of control
- VAL [1]: 0 % of control
- Feed/gain, days 3-10 ([2]; 10.0 ppm in feed): 99.8 % of control
- Feed/gain, days 3-17 ([2]; 10.0 ppm in feed): 97.5 % of control
- Feed/gain, days 10-17 ([2]; 10.0 ppm in feed): 96.6 % of control
- Mortality ([2]; 10.0 ppm in feed): 4
- Weight, day 10 ([2]; 10.0 ppm in feed): 100.3 % of control
- Weight, day 17 ([2]; 10.0 ppm in feed): 101.8 % of control
- Feed/gain, days 3-10 ([2]; 50.0 ppm in feed): 92.8 % of control
- Feed/gain, days 3-17 ([2]; 50.0 ppm in feed): 83.2 % of control
- Feed/gain, days 10-17 ([2]; 50.0 ppm in feed): 74.3 % of control
- Mortality ([2]; 50.0 ppm in feed): 2
- Weight, day 10 ([2]; 50.0 ppm in feed): 101.5 % of control
- Weight, day 17 ([2]; 50.0 ppm in feed): 120.2 % of control

Compound: CNC1C(=O)NC2C(=O)NC(C(=O)NC3C(=O)NC4C(=O)NC(C(=O)NC(C(=O)O)c5cc(O)cc(OC6OC(CO)C(O)C(O)C6O)c5-c5cc4ccc5O)C(O)c4cc(Cl)c(c(Cl)c4)Oc4cc3cc(c4OC3OC(CO)C(O)C(O)C3NC(=O)CCCCCCCC(C)C)Oc3ccc(cc3Cl)C2O)c2cc(cc(O)c2Cl)Oc2cc1ccc2O (stereo not drawn) [AAD-609 B]
- MIC (Clostridium difficile): 0.5 mg/L (≈ 0.279 µM)
- MIC (Escherichia coli 12140): > 100 mg/L
- MIC (S. epidermidis 2265): 25 mg/L (≈ 14 µM)
- MIC (S. epidermidis 2479; Staphylococcus epidermidis, 2479, Table A, read-out: MIC): 12.5 mg/L (≈ 6.99 µM)
- MIC (S. epidermidis 2479; Table B): 12.5 mg/L (≈ 6.99 µM)
- MIC (S. epidermidis 2683): 25 mg/L (≈ 14 µM)
- MIC ([3]; Staphylococcus epidermidis, Table A, read-out: MIC): 50 mg/L (≈ 27.9 µM)
- MIC ([3]; Table B): 50 mg/L (≈ 27.9 µM)
- MIC [4]: > 100 mg/L
- MIC ([5]; Staphylococcus aureus, HH127, Table A, read-out: MIC): 1.6 mg/L (≈ 0.894 µM)
- MIC ([5]; Table B): 1.6 mg/L (≈ 0.894 µM)
- MIC [6]: 0.2 mg/L (≈ 0.112 µM)
- MIC (S. aureus 209P): 0.8 mg/L (≈ 0.447 µM)
- MIC (S. aureus 674): 0.8 mg/L (≈ 0.447 µM)
- MIC (S. aureus 675): 6.3 mg/L (≈ 3.52 µM)
- MIC [7]: 1.6 mg/L (≈ 0.894 µM)
- MIC (S. faecalis 34358; Enterococcus faecalis, 34358, Table A, read-out: MIC): 0.2 mg/L (≈ 0.112 µM)
- MIC (S. faecalis 34358; Table B): 0.2 mg/L (≈ 0.112 µM)
- MIC [8]: 2 mg/L (≈ 1.12 µM)
- pKa (A) carboxyl on aglycone [9]: 3.5
- pKa (C) amino group on aglycone [9]: 7.1
